Assay results from paper PMC5504085 (Journal of medicinal chemistry, 2017).

Tested on: not listed separately
Assay: Metabolic stability in mouse liver S9 fractions
Format: in vitro ADME
Conditions: in the absence of cofactors

Molecule | stability with mouse S9 fractions
Cc1ccoc1C(=O)N1CCCn2nc(C(=O)Nc3ccccc3F)cc2C1 [Compound 8g, N-(2-fluorophenyl)-5-(3-methylfuran-2-carbonyl)-5,6,7,8-tetrahydro-4H-pyrazolo[1,5-a][1,4]diazepine-2-carboxamide] | hydrolyzed rapidly

Same assay, conditions: mouse S9 subcellular fractions

Molecule | improvement in half-life compared to 8g
Cc1ccoc1C(=O)N1CCCn2nc(C(=O)Cc3ccccc3)cc2C1 [Compound 8p, 1-(5-(3-Methylfuran-2-carbonyl)-5,6,7,8-tetrahydro-4H-pyrazolo[1,5-a][1,4]diazepin-2-yl)-2-phenylethanone] | 2 fold

Tested on: recRSV-A2-L19FD489E-fireSMASh
Assay: not given
Format: cell-based, respiratory syncytial virus
Conditions: not given

Molecule | improvement in antiviral potency compared to hit compound 1a
Cc1ccoc1C(=O)N1CCCn2nc(C(=O)Nc3ccc(F)cc3F)cc2C1 [Compound 8c, N-(2,4-difluorophenyl)-5-(3-methylfuran-2-carbonyl)-5,6,7,8-tetrahydro-4H-pyrazolo[1,5-a][1,4]diazepine-2-carboxamide] | approximately 4 fold
Cc1ccoc1C(=O)N1CCCn2nc(C(=O)Nc3ccc(F)cc3Cl)cc2C1 [Compound 8n, N-(2-chloro-4-fluorophenyl)-5-(3-methylfuran-2-carbonyl)-5,6,7,8-tetrahydro-4H-pyrazolo[1,5-a][1,4]diazepine-2-carboxamide] | approximately 4 fold
Cc1ccoc1C(=O)N1CCCn2nc(C(=O)Nc3ccccc3F)cc2C1 [Compound 8g, N-(2-fluorophenyl)-5-(3-methylfuran-2-carbonyl)-5,6,7,8-tetrahydro-4H-pyrazolo[1,5-a][1,4]diazepine-2-carboxamide] | approximately 4 fold

Same assay, conditions: SAR discussion

Molecule | antiviral (anti-RSV) activity in words
Cc1ccoc1C(=O)N1CCCn2nc(C(=O)Cc3ccccc3)cc2C1 [Compound 8p, 1-(5-(3-Methylfuran-2-carbonyl)-5,6,7,8-tetrahydro-4H-pyrazolo[1,5-a][1,4]diazepin-2-yl)-2-phenylethanone] | retained sufficient activity
COc1ccc(NC(=O)c2cc3n(n2)CCCN(C(=O)c2occc2C)C3)cc1 [Compound 8l, N-(4-methoxyphenyl)-5-(3-methylfuran-2-carbonyl)-5,6,7,8-tetrahydro-4H-pyrazolo[1,5-a][1,4]diazepine-2-carboxamide] | nanomolar potency
Cc1ccoc1C(=O)N1CCCn2nc(C(=O)Nc3ccc(F)cc3)cc2C1 [Compound 8i, N-(4-fluorophenyl)-5-(3-methylfuran-2-carbonyl)-5,6,7,8-tetrahydro-4H-pyrazolo[1,5-a][1,4]diazepine-2-carboxamide] | nanomolar potency
Cc1ccoc1C(=O)N1CCCn2nc(C(=O)N(C)c3ccccc3)cc2C1 [Compound 8a, N-methyl-5-(3-methylfuran-2-carbonyl)-N-phenyl-5,6,7,8-tetrahydro-4H-pyrazolo[1,5-a][1,4]diazepine-2-carboxamide] | loss of activity
Cc1ccoc1C(=O)N1CCCn2nc(S(=O)(=O)Nc3ccccc3)cc2C1 [Compound 8r, 5-(3-Methylfuran-2-carbonyl)-N-phenyl-5,6,7,8-tetrahydro-4H-pyrazolo[1,5-a][1,4]diazepine-2-sulfonamide] | loss of activity
O=C(Nc1ccccc1)c1cc2n(n1)CCCN(C(=O)c1occc1C(F)(F)F)C2 [Compound 1j, N-phenyl-5-(3-(trifluoromethyl)furan-2-carbonyl)-5,6,7,8-tetrahydro-4H-pyrazolo[1,5-a][1,4]diazepine-2-carboxamide] | negative impacts on the potency
5-(4-Methyloxazole-5-carbonyl)-N-phenyl-5,6,7,8-tetrahydro-4H-pyrazolo[1,5-a][1,4]diazepine-2-carboxamide [Compound 1r] | complete loss of potency
Cc1ccoc1C(=O)N1CCCn2nc(CNc3ccccc3)cc2C1 [Compound 8q, (3-Methylfuran-2-yl)(2-((phenylamino)methyl)-7,8-dihydro-4H-pyrazolo[1,5-a][1,4]diazepin-5(6H)-yl)methanone] | retained sufficient activity
Cc1ccoc1C(=O)N1CCCn2nc(C(=O)Nc3ccc(F)cc3Cl)cc2C1 [Compound 8n, N-(2-chloro-4-fluorophenyl)-5-(3-methylfuran-2-carbonyl)-5,6,7,8-tetrahydro-4H-pyrazolo[1,5-a][1,4]diazepine-2-carboxamide] | nanomolar potency
O=C(Nc1ccccc1)c1cc2n(n1)CCCN(C(=O)c1occc1-c1ccccc1)C2 [Compound 1h, N-phenyl-5-(3-phenylfuran-2-carbonyl)-5,6,7,8-tetrahydro-4H-pyrazolo[1,5-a][1,4]diazepine-2-carboxamide] | lacked appreciable inhibitory activity
Cc1ccoc1C(=O)N1CCCn2nc(NC(=O)c3ccccc3)cc2C1 [Compound 8s, N-(5-(3-methylfuran-2-carbonyl)-5,6,7,8-tetrahydro-4H-pyrazolo[1,5-a][1,4]diazepin-2-yl)benzamide] | loss of activity
O=C(Nc1ccccc1)c1cc2n(n1)CCCN(C(=O)c1ccncn1)C2 [Compound 1s, N-phenyl-5-(pyrimidine-4-carbonyl)-5,6,7,8-tetrahydro-4H-pyrazolo[1,5-a][1,4]diazepine-2-carboxamide] | complete loss of potency
Cc1ccc(C(=O)N2CCCn3nc(C(=O)Nc4ccccc4)cc3C2)o1 [Compound 1p, 5-(5-Methylfuran-2-carbonyl)-N-phenyl-5,6,7,8-tetrahydro-4H-pyrazolo[1,5-a][1,4]diazepine-2-carboxamide] | loss of activity
Cc1ccn(C)c1C(=O)N1CCCn2nc(C(=O)Nc3ccccc3)cc2C1 [Compound 1e, 5-(1,3-Dimethyl-1H-pyrrole-2-carbonyl)-N-phenyl-5,6,7,8-tetrahydro-4H-pyrazolo[1,5-a][1,4]diazepine-2-carboxamide] | complete loss of potency
Cc1cc(C(=O)N2CCCn3nc(C(=O)Nc4ccccc4)cc3C2)oc1C [Compound 1n, 5-(4,5-Dimethylfuran-2-carbonyl)-N-phenyl-5,6,7,8-tetrahydro-4H-pyrazolo[1,5-a][1,4]diazepine-2-carboxamide] | lacked antiviral activity
5-(4-Methylisoxazole-5-carbonyl)-N-phenyl-5,6,7,8-tetrahydro-4H-pyrazolo[1,5-a][1,4]diazepine-2-carboxamide [Compound 1q] | complete loss of potency
Cc1cc[nH]c1C(=O)N1CCCn2nc(C(=O)Nc3ccccc3)cc2C1 [Compound 1d, 5-(3-Methyl-1H-pyrrole-2-carbonyl)-N-phenyl-5,6,7,8-tetrahydro-4H-pyrazolo[1,5-a][1,4]diazepine-2-carboxamide] | complete loss of potency
Cc1ccsc1C(=O)N1CCCn2nc(C(=O)Nc3ccccc3)cc2C1 [Compound 1c, 5-(3-Methylthiophene-2-carbonyl)-N-phenyl-5,6,7,8-tetrahydro-4H-pyrazolo[1,5-a][1,4]diazepine-2-carboxamide] | complete loss of potency
Cc1c(C(=O)N2CCCn3nc(C(=O)Nc4ccccc4)cc3C2)oc2ccccc12 [Compound 1i, 5-(3-Methylbenzofuran-2-carbonyl)-N-phenyl-5,6,7,8-tetrahydro-4H-pyrazolo[1,5-a][1,4]diazepine-2-carboxamide] | complete loss of potency
O=C(Nc1ccccc1)c1cc2n(n1)CCCN(S(=O)(=O)c1ccco1)C2 [Compound 1u, 5-(Furan-2-ylsulfonyl)-N-phenyl-5,6,7,8-tetrahydro-4H-pyrazolo[1,5-a][1,4]diazepine-2-carboxamide] | complete loss of bioactivity
CCc1ccoc1C(=O)N1CCCn2nc(C(=O)Nc3ccccc3)cc2C1 [Compound 1k, 5-(3-Ethylfuran-2-carbonyl)-N-phenyl-5,6,7,8-tetrahydro-4H-pyrazolo[1,5-a][1,4]diazepine-2-carboxamide] | negative impacts on the potency
Cc1ccoc1CN1CCCn2nc(C(=O)Nc3ccccc3)cc2C1 [Compound 1t, 5-((3-Methylfuran-2-yl)methyl)-N-phenyl-5,6,7,8-tetrahydro-4H-pyrazolo[1,5-a][1,4]diazepine-2-carboxamide] | complete loss of bioactivity
Cc1coc(C(=O)N2CCCn3nc(C(=O)Nc4ccccc4)cc3C2)c1 [Compound 1o, 5-(4-Methylfuran-2-carbonyl)-N-phenyl-5,6,7,8-tetrahydro-4H-pyrazolo[1,5-a][1,4]diazepine-2-carboxamide] | loss of activity
Cc1ccoc1C(=O)N1CCCn2nc(NS(=O)(=O)c3ccccc3)cc2C1 [Compound 8t, N-(5-(3-methylfuran-2-carbonyl)-5,6,7,8-tetrahydro-4H-pyrazolo[1,5-a][1,4]diazepin-2-yl)benzenesulfonamide] | loss of activity

Tested on: not listed separately
Assay: Metabolic stability in mouse liver microsomes
Format: in vitro ADME
Conditions: without cofactors, 2 hours

Molecule | stability of parent in mouse liver microsomes
Cc1ccoc1C(=O)N1CCCn2nc(C(=O)Cc3ccccc3)cc2C1 [Compound 8p, 1-(5-(3-Methylfuran-2-carbonyl)-5,6,7,8-tetrahydro-4H-pyrazolo[1,5-a][1,4]diazepin-2-yl)-2-phenylethanone] | parent remained intact

Tested on: RSV
Assay: not given
Conditions: orally available; phase II clinical trials; cited from earlier work

Molecule | effect on viral load and disease symptoms
CC(C)C(=O)OC[C@@]1(CCl)O[C@@H](n2ccc(N)nc2=O)[C@H](F)[C@@H]1OC(=O)C(C)C [ALS-8176, 4'-chloromethyl-2'-deoxy-3',5'-di-o-isobutyryl-2'-fluorocytidine] | decreased viral load and disease symptoms
